Our source for the RP-LC retention time values is the METLIN SMRT retention time set (Domingo-Almenara et al. 2019).

This data set in a line: gradient 5% acetonitrile 3 min, to 50% in 2 min, to 85% in 15 min, held 3 min, 100 µL/min. The settings on record: column: Zorbax Extend-C18 2.1 x 50 mm; eluents: water / acetonitrile, 0.1% formic acid. In outline: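 Mixtures of ~100 pure standards were chromatographed on a Zorbax Extend-C18 column (2.1 × 50 mm, 1.8 μm) at 100 μL/min using water and acetonitrile, each with 0.1% formic acid. Detection used a quadrupole time-of-flight mass spectrometer in positive and negative ionization mode, and data collection spanned 3 months. Retention time was obtained from adduct peaks picked computationally and each checked manually.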
Turning to `CC1CCN(C(=O)c2nc(CCS(=O)(=O)c3ccc(Cl)cc3)no2)CC1`, the RP-LC retention time stood at 974 s.

For the compound `O=C(Cn1cccc(-c2nc(-c3ccc(F)cc3)no2)c1=O)N1CCN(c2ccc(F)cc2)CC1`, the RP-LC retention time worked out at 898 s.

As to `CNS(=O)(=O)c1ccc(C(=O)N2CCc3ccccc3C2)o1`, the RP-LC retention time amounted to 724 s.

With `Cc1sc(-c2noc(C(C)C)n2)cc1S(=O)(=O)N1CCC(C(=O)Nc2cccc(C#N)c2)CC1`, the RP-LC retention time turned out to be 1090 s.

For the compound `CCOC(=O)CCC(=O)N1CCC(Oc2nc3c(C)ccc(C)c3s2)CC1`, the RP-LC retention time came to 1100 s.

In turn, `O=C1NCCOCCN(C(=O)c2nccc3ccccc23)[C@H]2CCC[C@@H]12` showed an RP-LC retention time of 674 s.

With `CCOC(=O)CNC(=O)NCc1cccn1Cc1ccc(Cl)cc1`, the RP-LC retention time stood at 843 s.

The compound `CCc1cccc(NS(=O)(=O)c2cc(-c3c(CC)noc3NC(C)=O)ccc2OC)c1` registered an RP-LC retention time of 807 s.

As to `COc1ccc(C(C)NC(=O)Cn2c(=O)n(-c3ccccc3)c3ncccc32)cc1OC` (stereo not given), the RP-LC retention time came out at 741 s.

`O=C([C@@H]1C[C@H](F)CN1C(=O)Nc1ccc(C(F)(F)F)cc1)N1CCCCC1` displayed an RP-LC retention time of 821 s.

Consider `CC(=O)c1ccc2c3c(cccc13)C(=O)N(c1ccccc1)C2=O`, for which the RP-LC retention time is 811 s.

`Fc1ccc(-c2nc(-c3ccc(-n4cccn4)nc3)no2)c(F)c1` gave an RP-LC retention time of 1170 s.

`Cc1ccc(NC(=O)C2CC(=O)N(c3cccc(NC(=O)C4CCC4)c3)C2)cc1Cl` (stereo not given): the RP-LC retention time turned out to be 914 s.

With `Cc1cccc(CNS(=O)(=O)c2cc3n(c2)CCCNC3=O)c1`, the RP-LC retention time turned out to be 677 s.

`CC(C)n1nc(CNC(=O)c2ccsc2)c2ccccc21` had an RP-LC retention time of 800 s.

For `O=C(Nc1cccc(Br)c1)N1CCc2nc[nH]c2C1`, the RP-LC retention time turned out to be 614 s.

Regarding `Cc1cc(OC(C)C(=O)N[C@H](C(=O)O)C(C)C)c2c3c(c(=O)oc2c1)CCCC3` (stereo not given in full), the RP-LC retention time is 865 s.

As to `Cc1ccc(Nc2nc(C)cc(N3CCN(C(=O)Nc4ccc5c(c4)OCO5)CC3)n2)cc1`, the RP-LC retention time came to 676 s.

Regarding `O=C(NCc1ccc2c(c1)OCO2)NCc1ccc2c(c1)OCO2`, the RP-LC retention time came to 692 s.

In turn, `CCc1nnc(-c2cccn2CC(=O)Nc2cc(OC)cc(OC)c2)o1` registered an RP-LC retention time of 787 s.

Compound `CC1=NN(CCC#N)C(=O)/C1=C\c1ccc(N(C)C)cc1` returned an RP-LC retention time of 691 s.

`CC1CCN(S(=O)(=O)c2nn(Cc3ccccc3)cc2C(=O)O)CC1` returned an RP-LC retention time of 882 s.

The compound `CCn1cnc(S(=O)(=O)N2CCC(C(=O)NCCC3=CCCCC3)CC2)c1` registered an RP-LC retention time of 761 s.

On to `CCCN(CCC)C(=O)Cn1c(C2CCCN2C(=O)CC)nc2ccccc21` (stereo not given), for which the RP-LC retention time stood at 660 s.

Turning to `Cn1nc(C(=O)N2CCCCC2)c2c1CCN(C(=O)CCC(=O)NC1CCCCC1)C2`, the RP-LC retention time stood at 681 s.

Compound `CCNC(=O)c1nc(Nc2ccc(CC)cc2)c2ccccc2n1` registered an RP-LC retention time of 756 s.

`CCn1nccc1-c1cccc(-c2noc(C3CC(=O)N(c4cccc(Cl)c4)C3)n2)c1` (stereo not given) gave an RP-LC retention time of 1090 s.

With `COC(=O)c1cc2c(=O)n(CCc3ccc(OC)c(OC)c3)ccc2nc1C`, the RP-LC retention time came out at 769 s.

`CNS(=O)(=O)CCCOc1ccc2c(c1)OCO2` had an RP-LC retention time of 697 s.

`COc1ccccc1NC(=O)Cn1c2ccccc2n2c(=O)cc(-c3ccc(F)cc3)nc12` returned an RP-LC retention time of 1010 s.

In turn, `COc1ccc(-c2nc(N3CCCC3)c3ccccc3n2)cc1` displayed an RP-LC retention time of 742 s.

The compound `C=C(C)CN1CCN(c2cc(C)nc3c(C)c(-c4ccc(Cl)cc4)nn23)CC1` registered an RP-LC retention time of 693 s.

Turning to `O=C(Nc1cccc(Cl)c1)N1CCC(n2c(-c3ccco3)nc3cccnc32)C1` (stereo not given), the RP-LC retention time worked out at 800 s.

For the compound `Cc1ccc(NC(=O)N2CCC(N3CCN(Cc4ccc(F)cc4)C(=O)C3=O)CC2)cc1F`, the RP-LC retention time is 770 s.

Consider `CC(C)Cc1ccc(S(=O)(=O)N2CCC3(CCC(CN4CCN(C)CC4)O3)CC2)cc1` (stereo not given), for which the RP-LC retention time is 688 s.

Turning to `COc1ccc(S(=O)(=O)NCc2ccc3c(c2)CCN3C(=O)c2ccccc2)cc1`, the RP-LC retention time was found to be 904 s.

Turning to `CCc1ccc(-c2ccc(-n3nc(C)c(S(=O)(=O)N4CCOCC4)c3C)nn2)cc1`, the RP-LC retention time turned out to be 1070 s.

Take `O=C(c1cnccn1)N1[C@H]2CC[C@@H]1c1cnc(-c3ccccc3)nc1C2`: the RP-LC retention time is 807 s.

With `CCn1cc(C(=O)Nc2ccccc2)c2cccnc21`, the RP-LC retention time is 798 s.

`CCC(=O)NCc1nc2c(n1CC)CN(S(=O)(=O)c1ccccc1F)CC2` showed an RP-LC retention time of 561 s.

`O=C(c1c(OCC2CC2)cc(=O)n2c1CCCCC2)N1CCc2ccccc2C1` yielded an RP-LC retention time of 837 s.

Turning to `CCN1CCN(CCNC(=O)Cn2ccc3c(C)nn(CC)c3c2=O)CC1`, the RP-LC retention time is 557 s.

`COc1ccccc1C(=O)N1CCN(c2cnn3c(C)nnc3c2)CC1` came in with an RP-LC retention time of 601 s.

For the compound `Cc1oc(-c2ccc(NC(=O)c3ccc(Br)cc3)cc2)nc1Cn1cccn1`, the RP-LC retention time was 948 s.

With `NC(=O)C1CCN(C(=O)C2CCN(S(=O)(=O)Cc3ccc(F)cc3)CC2)CC1`, the RP-LC retention time came to 644 s.

In turn, `Cc1cc(N2CCOCC2)nc(N2CCN(C(=O)c3ccc(C)c(C)c3)CC2)n1` displayed an RP-LC retention time of 646 s.

For `Cc1ccc(OCC(=O)Nc2cc3c(cc2N(C)C)n(C)c(=O)c(=O)n3C)c(C)c1`, the RP-LC retention time is 962 s.

`Cc1cccc(NC(=O)C2CCc3nc(N4CCOCC4)ncc3C2)c1C` (stereo not given) returned an RP-LC retention time of 698 s.

In the case of `CCN1CCN(CCNC(=O)CCC(=O)N2CC3CCCN3c3ccccc32)CC1` (stereo not given), the RP-LC retention time is 561 s.

Regarding `CCN(CC)CCOCCOC(=O)C(CC)(CC)c1ccccc1`, the RP-LC retention time is 763 s.

`COc1cc(OC)c(NC(=O)Cn2ccc3sccc3c2=O)cc1Cl` came in with an RP-LC retention time of 775 s.

`COc1cccc2cc(C(=O)NC3C=CS(=O)(=O)C3)oc12` (stereo not given) showed an RP-LC retention time of 652 s.

Compound `O=C(O)c1ccc(N2CCN(c3ccccn3)CC2)c(NS(=O)(=O)c2cc(F)ccc2F)c1` gave an RP-LC retention time of 640 s.

For the compound `COc1ccc(S(=O)(=O)N2CCc3c(c(-c4nnc(-c5ccc(F)cc5)o4)nn3C)C2)cc1`, the RP-LC retention time turned out to be 945 s.

Regarding `Cc1cc(-c2nnc(C3CCC3)o2)c(C)n1CC(=O)NCc1ccc(C(F)(F)F)cc1`, the RP-LC retention time was 941 s.

Compound `CCn1nc(C)c2c(-c3ccccc3)cc(OC(C)C(=O)Nc3ccc(C(C)=O)cc3)nc21` (stereo not given) came in with an RP-LC retention time of 1030 s.

As to `O=S(=O)(c1ccc(F)cc1)N1CCC2(CC1)NCCN=C2NCc1ccc(Cl)cc1`, the RP-LC retention time came to 722 s.

`COC(=O)c1cc2c(=O)n(-c3ccccc3Cl)ccc2nc1C`: the RP-LC retention time is 830 s.

Take `O=C(NCC1CC1)C1CCN(c2ncnc3c2oc2ccccc23)CC1`: the RP-LC retention time came out at 678 s.

`O=S(=O)(c1ccc2c(c1)OCCO2)N1CCC(CN2CCCCCC2)CC1` returned an RP-LC retention time of 645 s.

Regarding `Cn1cc(-c2nc(C(=O)N3CCN(c4ccccc4)CC3)cs2)c2cccnc21`, the RP-LC retention time was found to be 911 s.

Compound `O=C(CSc1nnc2c3cc(-c4ccccc4)nn3ccn12)NCc1ccccc1Cl` gave an RP-LC retention time of 800 s.

On to `CCC(=O)N(C1CCOCC1)C1CCN(Cc2cn(C)c3ccccc23)CC1`, for which the RP-LC retention time was 638 s.

As for `Cc1cccc2nnc(N3CCC(C(=O)NCC4CCCCC4)CC3)n12`, the RP-LC retention time came out at 709 s.

`Cc1ccc(CN2C(=O)C3CCCN3C(=O)c3ccccc32)cc1` (stereo not given) returned an RP-LC retention time of 797 s.

On to `O=C(COc1ccc(Cl)cc1Cl)Nc1ccc2c(c1)N(C(=O)c1cccs1)CC2`, for which the RP-LC retention time came out at 1060 s.

`CCCn1cc(CCNC(=O)Nc2ccc(C)cc2Cl)c2cccnc21` showed an RP-LC retention time of 886 s.

`Cc1ccc(S(=O)(=O)N2CCC(CCNC(=O)NC(C)C)CC2)cc1`: the RP-LC retention time stood at 796 s.

With `Cc1occc1-c1nnc2sc(COc3ccccc3Cl)nn12`, the RP-LC retention time amounted to 994 s.

With `COc1nccnc1N1CCC(NC(=O)CCc2c(C)noc2C)C1` (stereo not given), the RP-LC retention time is 606 s.

`COc1ccc(N2C(=O)C3N=NN(Cc4nc(-c5ccc(Cl)cc5)no4)C3C2=O)cc1` (stereo not given) gave an RP-LC retention time of 1000 s.

On to `COc1ccc(Cl)cc1NC(=O)c1cn(C)c2ncccc12`, for which the RP-LC retention time is 955 s.

`Nc1nc(N2CCC3(CC2)OCCO3)ncc1C(=O)NCc1ccccc1F` registered an RP-LC retention time of 651 s.

For the compound `OCCCCc1nccc2c1[nH]c1ccccc12`, the RP-LC retention time came to 628 s.

Compound `O=C(NCCN1CCCC1)C1CCN(c2nccnc2Sc2ccccc2)CC1` displayed an RP-LC retention time of 645 s.

In turn, `Cc1nnc2ccc(N3CCC(C)CC3)nn12` returned an RP-LC retention time of 1000 s.

For the compound `COc1ccc(OC)c(CNC(=O)C2CCCN(c3nccnc3Sc3ccc(C)cc3)C2)c1` (stereo not given), the RP-LC retention time is 1070 s.

Consider `Cc1ccc(NC(=O)CN2C(=O)C3CCCCN3c3ccc(S(=O)(=O)N4CCCCC4)cc32)cc1` (stereo not given), for which the RP-LC retention time worked out at 987 s.

With `CC(C)(C)c1ccc(C(=O)CCCN2CCC(OC(c3ccccc3)c3ccccc3)CC2)cc1`, the RP-LC retention time worked out at 1190 s.

Consider `O=C(NC(c1ccccc1)c1nnc(-c2ccccc2)o1)c1ccco1` (stereo not given), for which the RP-LC retention time was determined as 876 s.
